Results on 6 compounds are retold here after BindingDB's records for doi:10.1016/0922-4106(90)90035-v (Royal Danish School of Pharmacy, 1990).

Each structure is given as a SMILES string. Where only a bound is given, the exact number is not on record here.

In one assay the target is Glutamate receptor 3 (Rattus norvegicus, UniProt P19492).
Sequence of Glutamate receptor 3 (P19492 whole entry): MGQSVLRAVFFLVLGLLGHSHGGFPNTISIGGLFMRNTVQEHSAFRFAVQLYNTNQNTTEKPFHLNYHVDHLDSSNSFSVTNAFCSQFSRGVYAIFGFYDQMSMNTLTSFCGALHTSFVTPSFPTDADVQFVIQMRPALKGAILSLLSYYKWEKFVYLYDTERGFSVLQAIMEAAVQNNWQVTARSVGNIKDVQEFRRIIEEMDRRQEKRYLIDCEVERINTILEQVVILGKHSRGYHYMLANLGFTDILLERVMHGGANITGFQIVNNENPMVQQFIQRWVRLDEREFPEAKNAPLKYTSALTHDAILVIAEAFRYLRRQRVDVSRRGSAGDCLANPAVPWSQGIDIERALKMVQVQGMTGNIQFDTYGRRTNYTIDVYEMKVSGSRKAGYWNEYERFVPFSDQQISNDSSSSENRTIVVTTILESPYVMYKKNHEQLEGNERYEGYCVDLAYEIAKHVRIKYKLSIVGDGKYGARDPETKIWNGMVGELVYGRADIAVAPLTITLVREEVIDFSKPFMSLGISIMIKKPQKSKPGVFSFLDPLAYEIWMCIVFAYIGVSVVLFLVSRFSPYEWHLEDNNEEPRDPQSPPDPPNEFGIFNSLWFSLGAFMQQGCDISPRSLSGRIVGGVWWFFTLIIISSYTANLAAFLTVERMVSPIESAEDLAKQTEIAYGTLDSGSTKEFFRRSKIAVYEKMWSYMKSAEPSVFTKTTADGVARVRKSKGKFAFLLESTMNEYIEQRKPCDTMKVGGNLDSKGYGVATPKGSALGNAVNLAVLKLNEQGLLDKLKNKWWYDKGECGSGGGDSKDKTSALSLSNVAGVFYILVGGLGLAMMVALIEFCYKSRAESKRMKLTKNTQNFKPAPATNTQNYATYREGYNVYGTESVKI
As for `CNC(Cc1c(C)o[nH]c1=O)C(=O)O` (configuration not stated) [N-methyl-AMPA], the Ki (in general, a dissociation constant, usually derived from enzyme kinetics or from competition with a known ligand) is more than 10 µM. On the same count and under the same terms, the value for `Cc1o[nH]c(=O)c1CC(C(=O)O)N(C)C` (configuration not stated) [N,N-dimethyl-AMPA] was more than 10 µM.

Consider `O=C(O)C1NCCc2o[nH]c(=O)c21` (configuration not stated) [CAS_129091], for which the Ki was more than 10 µM.

The target in another assay is Glutamate receptor ionotropic, NMDA 1 (Rattus norvegicus, UniProt P35439).
In the case of `CNC(C(=O)O)c1c(C)o[nH]c1=O` (configuration not stated), the Ki is more than 10 µM.

In turn, `O=C(O)c1cccnc1C(=O)O` [pyridine-2,3-dicarboxylic acid] showed an inhibition constant Ki of more than 10 µM. Same read-out and setting: the value for `O=C(O)C1NCCc2o[nH]c(=O)c21` (configuration not stated) [CAS_129091] was more than 10 µM; that for `Cc1o[nH]c(=O)c1C(C(=O)O)N(C)C` (configuration not stated) [N,N-dimethyl-AMAA] was more than 10 µM.
